Literature values in US5658892A, “Compound delivery using high-pressure impulse transients” (The General Hospital Corporation, priority 1995, dated 1997).

Tested on: prostate tumors
Details: rats, Holmes et al. 1990

Q: Which tumor growth (combined with high-pressure, short-duration waves) does the source give for `N.N.[Cl][Pt][Cl]` [cisplatinum] here?
A: delayed tumor growth was achieved

Q: What about the “animal mortality (relative to cisplatinum alone)” value (combined with shock wave therapy) of the same molecule?
A: an increase in animal mortality
